Patent publication US8716260B2, “Use of S-adenosylmethionine, vitamin E, and vitamin C for the treatment of oxidative liver injury” (University of Manitoba, priority 2005, dated 2014)

Key:
Assay type in all cases: in vivo, rat
[1] = test system: Male Sprague-Dawley rats; assay: Rapid Insulin Sensitivity Test (RIST); conditions: for RIST index: TAA rats (TAA 200 mg.kg-1 i.p. 24 h before), control RIST, treatments i.p. 1 h post TAA; for RIST index post atropine: TAA rats, second RIST after atropine 0.1 mg.kg-1 i.v. (HISS-independent component)
Protocol: Surgical Preparation. Male Sprague-Dawley rats weighing 260-300 g from the University of Manitoba colony were maintained in the animal house under controlled conditions (22±1° C., 12 h light/12 h dark cycle). They were fed a standard rat chow diet with free access to water. All rats underwent a fasting period of 8 h and a refeeding phase of 2 h immediately before the start of surgical preparation. As HISS is only released in the fed state, the fasting-refeeding protocol assured a high level of HISS release in response to insulin. The rats were anaesthetized with an intraperitoneal injection of sodium pentobarbital (65 mg kg-1; Somnotol, MTC Pharmaceuticals, Ont). Maintained anesthesia was achieved throughout the experiment by a continuous infusion of pentobarbital sodium (0.5 mg.ml-1 saline given at 50 μl.min-1) through a cannula in the jugular vein, supplemented with a 0.65 mg (0.01 ml) bolus injection when required. The rats were placed on a temperature-controlled surgical table (Harvard Apparatus, Kent, England) and rectal temperature was monitored and held at 37-37.5° C. Spontaneous respiration was allowed through a tracheal tube.
An arterial-venous shunt was established, as previous described (Lautt W W et al. Can J Physiol Pharmacol. 1998; 76(12): 1080-6.), for monitoring mean arterial blood pressure (MAP), blood glucose level and for drug delivery. Briefly, two catheters (polyethylene tubing PE60), one inserted into the right femoral artery and the other into the right femoral vein, were connected to the two openings of a three way vascular circuit consisting of a T tube connected with silicon tubing. The third opening of the circuit was connected to a pressure transducer for the recording of the shunt pressure which, when the silicon tubing toward the venous side of the circuit was closed by clamping, represented the systemic arterial blood pressure. Blood samples were taken from the arterial side of the shunt for the glucose measurement. Flowing blood within the shunt assures the real time measurement of the blood glucose concentration, which is essential for the euglycemic clamp test as mentioned below. An infusion line was inserted into the venous side of the loop for drug delivery. Another infusion line connected to the jugular vein was established for glucose infusion. Animals were heparinized (100 IU.kg-1) to prevent clotting in the vascular loop.
Rapid Insulin Sensitivity Test (RIST). The RIST was performed as previously described (Lautt W W et al. Can J Physiol Pharmacol. 1998; 76(12): 1080-6.). Briefly, following completion of surgery, animals were allowed a 30-min stabilization period. The baseline glucose levels were then determined by samples taken at 5-min intervals and continued until three successive stable determinations were made. The mean of these three data points is regarded as the baseline for the RIST. To perform the RIST, human insulin (50mU.kg-1 in 0.5 ml saline) was infused into the femoral vein at the rate of 0.1 ml.min-1 for 5-min. After 1-min of insulin infusion, the first test glucose sample was determined and a variable glucose infusion (10%) was initiated. Blood samples were taken every 2-min and the glucose infusion rate was adjusted accordingly to maintain euglycemia. The RIST index is the amount of glucose (mg.kg-1) infused, to maintain euglycemia, over the test period that terminated when no further glucose infusion was required (approximately 30 min). At the end of a RIST, the animal is at its pretest glycemic level.
(§1) Animal groups. Six groups of animals were established under the following treatments: (1): Normal control rats, treated with saline and corn oil injection at the dose of 2 and 1 ml.kg-1, respectively, n=12. (2): Normal rats, treated with Vitamin C, Vitamin E and SAMe, n=8. The dose for Vitamin C and Vitamin E were 100 and 200 mg.kg-1, respectively; for SAMe was 25 mg.kg-1. […]

[2] = test system: Male Sprague-Dawley rats; assay: Liver histopathological examination; conditions: TAA rats; for Bridging Necrosis / Necrosis: score 0-3; for Inflammation: score 0-3 (normal-0, mild-1, moderate-2, severe-3), mean of 5 fields
Protocol: Six groups of animals were established under the following treatments: (1): Normal control rats, treated with saline and corn oil injection at the dose of 2 and 1 ml.kg-1, respectively, n=12. (2): Normal rats, treated with Vitamin C, Vitamin E and SAMe, n=8. The dose for Vitamin C and Vitamin E were 100 and 200 mg.kg-1, respectively; for SAMe was 25 mg.kg-1. (3): Thioacetaminde (TAA) rats, given with intraperitoneal injection of TAA at the dose of 200 mg.kg-1, n=9. (4): TAA rats treated with Vitamin C+Vitamin E, n=11. (5): TAA rats with SAMe treatment, n=7. (6): TAA rats treated with Vitamin C+Vitamin E+SAMe, n=8. All compounds were administered by intraperitoneal injection (i. p.). TAA was administered 24 h before the start of surgery, and all treatment with vitamins and SAMe were given 1 h post TAA administration.
The left liver lobe was excised and embedded in paraffin, sliced 7 μm in thickness, and stained with hematoxylin-eosin. The tissue slices were then analyzed with light microscopy. Histopathological analysis of the injured area was performed with a computerized video-imaging system (Image-Pro Plus. Media Cybernetics, Md., USA) by a pathologist (Y.F.) who was not aware of sample assignment to experimental group. The degree of injury, including inflammation, necrosis and bridging necrosis, was expressed as the mean of 5 different fields for each slide scaled as 0-3: normal-0, mild-1, moderate-2 and severe-3.

[3] = test system: Male Sprague-Dawley rats; assay: Hepatic enzymes analysis (serum ALT and AST); conditions: TAA rats; effect on TAA-induced increases
Protocol: as §1, with “mg.kg-1. (3): Thioacetaminde (TAA) rats, given with intraperitoneal injection of TAA at the dose of 200 mg.kg-1, n=9. (4): TAA rats treated with Vitamin C+Vitamin E, n=11. (5): TAA rats with SAMe treatment, n=7. (6): TAA rats treated with Vitamin C+Vitamin E+SAMe, n=8. All compounds were administered by intraperitoneal injection (i. p.).” for “mg.kg-1.”
Protocol. […] Following the establishment of glucose baseline, the first RIST index was determined and this was regarded as the control RIST. […] The percentage contribution of HISS-dependent component to total insulin sensitivity was calculated as: % HISS=(RIST index in control−RIST index after atropine)/RIST index in control. […]
Hepatic enzymes analysis. Serum samples from rats in groups 1 to 6 were analyzed for alanine aminotransferase (ALT) and aspartate aminotransferase (AST) activities spectrophotometrically utilizing an Abbott analyzer and Diagnostic Chemicals Limited assay reagents (Charlottetown, P.E.I, Canada).

Structure (SMILES) | inhibition at 0.1 mg/kg ([1]; Rattus norvegicus, read-out: inhibition of insulin sensitivity) [%] | RIST index after atropine ([1]; normal rats, atropine 0.1 mg.kg^−1) [mg/kg] | RIST index [1] [mg/kg] | RIST index post atropine [1] [mg/kg] | histological injury of liver [2] | Bridging Necrosis [2] | Necrosis [2] | Inflammation [2] | Serum ALT and AST activities [3]
CN1[C@@H]2CC[C@H]1C[C@@H](OC(=O)C(CO)c1ccccc1)C2 (stereo partly shown) [Atropine, atropine] | 50 ± 2.1 | 82.7 ± 3.2 |  |  |  |  |  |  | 
CC(=N)S [TAA, thioacetamide] |  |  | 75.5 ± 2.8 | 69.0 ± 2.1 | massive hepatocytic necrosis | 1.17 ± 0.36 | 2.33 ± 0.17 | 1.50 ± 0.22 | significant increase
C[S+](CC[C@H](N)C(=O)O)C[C@H]1O[C@@H](n2cnc3c(N)ncnc32)[C@H](O)[C@@H]1O (stereo partly shown) [SAMe, S-adenosylmethionine] |  |  | 88.0 ± 4.1 | 72.1 ± 3.5 | slight reduction in histological injury | 0.09 ± 0.09 | 1.79 ± 0.15 # | 0.93 ± 0.13 | did not prevent
